This passage reports TGI results from PubChem BioAssay (NCI).

Several values for one entry are separate records, joined by “and”; a condition that tells them apart may be missing. Equal values may be shown once.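 Test compounds were applied to cells in 96-well plates for 48 hours at 5 doses. TGI denotes the concentration required for complete inhibition of growth.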 Where a SMILES comes first, the peptide text is derived from it. The star is where a group is joined. Boc = CC(C)(C)OC(=O)*

Among the test systems are 786-0 renal; CAKI-1 renal; HOP-62 NSCLC; HS 578T breast; KM12 colon; OVCAR-5 ovarian; SK-MEL-2 melanoma; SNB-19 CNS; RPMI-8226 leukemia; SNB-75 CNS.
Test in all cases: inhibition of tumour cell growth, NCI panel, 48 h

In the case of `COc1ccc(CC(O)CN2CCOCC2)cc1` (centres undefined), the TGI in the assay on 786-0 renal, with CAKI-1 renal, in the assay with HOP-62 NSCLC, in the assay with HS 578T breast, in the assay on KM12 colon and with OVCAR-5 ovarian was over 100 µM throughout. For the same compound, the TGI in the assay on SK-MEL-2 melanoma and with SNB-19 CNS was over 100 µM in each case.

For `COc1ccc2nc3cc(Cl)ccc3c(NCCCNCCCNc3c4ccc(Cl)cc4nc4ccc(OC)cc34)c2c1`, the TGI with HOP-62 NSCLC stood at 0.14 µM; with OVCAR-5 ovarian, 0.237 µM; in the assay with RPMI-8226 leukemia, 27.7 µM; in the assay on SK-MEL-2 melanoma, 0.15 µM; in the assay on SNB-19 CNS, 0.314 µM; in the assay on SNB-75 CNS, 0.23 µM.

`O=C(CCCN1CCC2(CC1)CC(=O)N(N1CCOCC1)C2=O)c1ccccc1`: the TGI in the assay with 786-0 renal, in the assay on CAKI-1 renal, with HOP-62 NSCLC, in the assay with KM12 colon, with OVCAR-5 ovarian and in the assay on RPMI-8226 leukemia was over 100 µM throughout. In addition, the TGI in the assay with SNB-19 CNS and in the assay with SNB-75 CNS was over 100 µM each time.

In the case of `CC(C)(C)OC(=O)NCC(=O)NCC(=O)NCC(=O)NCC(=O)O` (Boc-GGGG-OH), the TGI in the assay on 786-0 renal, with CAKI-1 renal, in the assay on HOP-62 NSCLC, with HS 578T breast, in the assay on KM12 colon and in the assay on OVCAR-5 ovarian was over 100 µM in each case. Moreover, the TGI in the assay with RPMI-8226 leukemia and with SNB-19 CNS was over 100 µM in each case.

`COc1nc(C#CCC(C)O)nc(OC)n1` (centres undefined): the TGI turned out to be 31.9 µM in the assay with CAKI-1 renal; 36.8 µM in the assay on HOP-62 NSCLC; 72 µM in the assay with HS 578T breast; 82 µM in the assay on KM12 colon; 33.3 µM with OVCAR-5 ovarian; 87.3 µM in the assay on SK-MEL-2 melanoma. In addition, the TGI with SNB-19 CNS was over 100 µM; in the assay with SNB-75 CNS, 64 µM.

For the compound `C=C[C@@H]1C(CO)=CCC2[C@H]1CCC1C(C)(C)C(=O)CC[C@]21C` (some centres undefined), the TGI in the assay with 786-0 renal, in the assay with CAKI-1 renal, with HOP-62 NSCLC, with HS 578T breast, in the assay with KM12 colon and in the assay on OVCAR-5 ovarian was over 100 µM in each case. Further, the TGI with RPMI-8226 leukemia, with SK-MEL-2 melanoma and with SNB-19 CNS was over 100 µM in each case.

Regarding `CCOC(=O)c1c(-c2ccc(OC)cc2)c(C#N)c(=S)n(C2OC(COC(C)=O)C(OC(C)=O)C(OC(C)=O)C2OC(C)=O)c1C` (centres undefined), the TGI in the assay on 786-0 renal, in the assay on CAKI-1 renal, in the assay on HOP-62 NSCLC, with KM12 colon, in the assay on OVCAR-5 ovarian and with SNB-19 CNS was over 100 µM in each case. In the assay on SNB-75 CNS, the TGI was 91 µM.

On to `CC(C)(C)NC(=O)/C(=C\Sc1ccccc1)c1ccc2c(c1)OCO2`, for which the TGI was over 100 µM in the assay with 786-0 renal; over 100 µM in the assay with CAKI-1 renal; over 100 µM with HOP-62 NSCLC; over 100 µM in the assay with KM12 colon; over 100 µM in the assay with OVCAR-5 ovarian; 94.4 µM with RPMI-8226 leukemia. Besides, the figures for the TGI with SK-MEL-2 melanoma and in the assay with SNB-19 CNS were 34.6 µM and over 100 µM, respectively.

Take `O=C1/C(=C\c2cccc(Oc3ccccc3)c2)S(=O)(=O)C(c2ccccc2)N1Cc1ccccc1` (centres undefined): the TGI in the assay on 786-0 renal was 40.1 µM; with CAKI-1 renal, 75 µM; with HOP-62 NSCLC, over 100 µM; in the assay with HS 578T breast it was 40.5 µM; in the assay on KM12 colon, 56.8 µM; in the assay with OVCAR-5 ovarian, over 100 µM. The TGI in the assay with SK-MEL-2 melanoma worked out at 40.7 µM; in the assay on SNB-19 CNS, 55.6 µM.

`CC[C@H]1CN2CCc3cc(OC)c(OC)cc3[C@@H]2C[C@@H]1C[C@H]1NCCc2cc(OC)c(OC)cc21`: the TGI is 0.0621 µM and 0.248 µM in the assay with 786-0 renal; 0.111 µM and 0.333 µM in the assay on CAKI-1 renal; 0.216 µM and 0.221 µM in the assay on HOP-62 NSCLC; 0.0665 µM with HS 578T breast; 0.138 µM in the assay on KM12 colon; 0.2 µM and 0.551 µM in the assay with OVCAR-5 ovarian. In addition, the TGI is 0.151 µM and 0.0175 µM in the assay on RPMI-8226 leukemia; 0.111 µM and 0.17 µM in the assay with SK-MEL-2 melanoma.

Take `Clc1ccc(-c2nn3c(-c4ccncc4)nnc3s2)cc1`: the TGI with 786-0 renal is 61.9 µM; in the assay on CAKI-1 renal it was over 100 µM; in the assay on HOP-62 NSCLC, 51.3 µM; with HS 578T breast it was over 100 µM; with KM12 colon, over 100 µM; with OVCAR-5 ovarian, over 100 µM. Besides, the TGI with RPMI-8226 leukemia, in the assay on SK-MEL-2 melanoma and in the assay on SNB-19 CNS was over 100 µM each time.

Turning to `CC12CC(=O)C3C(C(=O)C1)C32C` (centres undefined), the TGI with 786-0 renal, in the assay with CAKI-1 renal, in the assay on HOP-62 NSCLC, in the assay on KM12 colon, with OVCAR-5 ovarian and in the assay on RPMI-8226 leukemia was over 100 µM in each case. Also, the TGI with SK-MEL-2 melanoma, with SNB-19 CNS and with SNB-75 CNS was over 100 µM each time.

As to `CS(=O)(=O)OCCn1c(=O)n(CCOS(C)(=O)=O)c(=O)n(CCOS(C)(=O)=O)c1=O`, the TGI in the assay on 786-0 renal, in the assay with CAKI-1 renal, in the assay with HOP-62 NSCLC, with KM12 colon, in the assay on OVCAR-5 ovarian and in the assay on RPMI-8226 leukemia was over 100 µM throughout. Moreover, the TGI in the assay with SNB-19 CNS and with SNB-75 CNS was over 100 µM each time.

For `Cc1ccccc1C(O)(c1nccn1C)c1nccn1C`, the TGI in the assay with 786-0 renal, in the assay with CAKI-1 renal, in the assay with HOP-62 NSCLC, with HS 578T breast, with KM12 colon and in the assay with OVCAR-5 ovarian was over 100 µM throughout. Further, the TGI in the assay with SK-MEL-2 melanoma, in the assay with SNB-19 CNS and in the assay on SNB-75 CNS was over 100 µM throughout.

On to `O=C(NCCN1CCOCC1)c1ccc2cc(C(=O)N3CC(CCl)c4ccc([N+](=O)[O-])cc43)[nH]c2c1` (centres undefined), for which the TGI is 38.4 µM in the assay with 786-0 renal; 52.4 µM in the assay with CAKI-1 renal; 30.8 µM in the assay with HOP-62 NSCLC; 52.4 µM in the assay with HS 578T breast; over 100 µM in the assay with KM12 colon; over 100 µM in the assay with OVCAR-5 ovarian. In addition, the TGI in the assay with RPMI-8226 leukemia was found to be 9.09 µM; in the assay on SK-MEL-2 melanoma it was 32.7 µM; with SNB-19 CNS it was 28.8 µM.

`O=S(=O)(O)c1cc2ccc1/C=C\c1ccc(cc1S(=O)(=O)O)N=Nc1ccc(c(S(=O)(=O)O)c1)/C=C\c1ccc(cc1S(=O)(=O)O)N=N2`: the TGI in the assay on HOP-62 NSCLC, in the assay on KM12 colon, in the assay on OVCAR-5 ovarian, in the assay on RPMI-8226 leukemia, in the assay with SK-MEL-2 melanoma and in the assay on SNB-19 CNS was over 100 µM each time. The same compound came in with a TGI in the assay with SNB-75 CNS of over 100 µM.
